Data set [1] can be described thus: Octanol:water partition coefficient. It is filed as physicochemical. The conditions noted are these: read-out: Octanol: water partition coefficient (log P). From the text: Administering a better absorbed more lipophilic prodrug, which is subsequently hydrolysed to GP531, achieves an increase in the systemic availability of GP531.
Data set [2] in a line: Urinary excretion of GP531 after oral dosing in rat (relative/absolute bioavailability). The format is in vivo. The method, then: Two separate studies were conducted in the rat using the free base and/or the water soluble hydrochloride salt of Formula Va. In the first study, equimolar doses of GP531 (20 mg/kg) were administered orally in aqueous solution to separate groups (n=3) of rats as GP531 tartrate or Formula Va hydrochloride. […] Cmax increased 6-fold and AUC over 0-4 hr increased 4-fold. In a subsequent study, using the same equimolar doses of GP531 tartrate and prodrug, the relative bioavailability of GP531 was estimated in a group of rats (n=4) by comparison of the amount of GP531 excreted in urine after dosing.

Each structure is given as a SMILES string.

As for `CC(C)(C)C(=O)O[C@@H]1[C@H](OC(=O)C(C)(C)C)[C@@H](CNCc2ccccc2)O[C@H]1n1cnc(C(N)=O)c1N` [Formula Va], in data set [1], the logP amounted to 3.31. Moreover, in data set [2], the “GP531 bioavailability, free base vs hydrochloride salt of the prodrug” value is “no significant difference”.

These data come from patent publication US9492468B2, “Methods and compositions for treatment of acute heart failure” (PERICOR THERAPEUTICS, INC., priority 2008, dated 2016).
